Assay results: the supplement of paper PMC13380429

How the values were obtained:
[1] = tested on: A549-ACE2 infected with SARS-CoV-2; experiment: cell count relative to DMSO; higher = less toxic; conditions: 24 h
U2OS [2] = experiment: cell viability relative to DMSO; higher = less toxic; conditions: 72 h
Vero E6 [3] = experiment: as above; conditions: 72 h
HepG2 [4] = experiment: as above; conditions: 72 h
Calu-3 [5] = experiment: as above; conditions: 72 h
Caco-2 [6] = experiment: as above; conditions: 72 h
U2OS [7] = experiment: drug sensitivity score (DSS) for viability; higher = more toxic; extreme values may be limits of the assay; conditions: 72 h
Vero E6 [8] = experiment: as above; conditions: 72 h
HepG2 [9] = experiment: as above; conditions: 72 h
Calu-3 [10] = experiment: as above; conditions: 72 h
Caco-2 [11] = experiment: as above; conditions: 72 h
A549-ACE2 [12] = experiment: drug-induced phospholipidosis relative to tamoxifen; higher = more phospholipidosis
U2OS [13] = experiment: relative viability EC50 (midpoint between 100% and the lowest measured viability); higher = less toxic; conditions: 72 h
Vero E6 [14] = experiment: as above; conditions: 72 h
HepG2 [15] = experiment: as above; conditions: 72 h
Calu-3 [16] = experiment: as above; conditions: 72 h
Caco-2 [17] = experiment: as above; conditions: 72 h
[18] = tested on: A549-ACE2 infected with SARS-CoV-2; experiment: morphology score (similarity to uninfected cells); higher = more like uninfected cells; conditions: 24 h
[19] = tested on: A549-ACE2 infected with SARS-CoV-2; experiment: SARS-CoV-2 infection rate relative to DMSO; higher = more infection; conditions: 24 h
A549-ACE2 [20] = experiment: phospholipidosis EC50; higher = less potent phospholipidosis inducer

C=CC(=O)N1CCN(C(=O)CNc2cc(I)c(Cl)cc2O)CC1 [K-Ras(G12C)-inhibitor-12]
Conditions | SARS-CoV-2 infection rate, [19] [%] | cell count, [1] [%] | cell viability, Caco-2 [6] [%] | cell viability, Calu-3 [5] [%] | cell viability, HepG2 [4] [%] | cell viability, U2OS [2] [%] | cell viability, Vero E6 [3] [%] | morphology score, [18]
1 nM | – | – | 102 | 112 | 95.2 | 108 | 101 | –
10 nM | – | – | 96.3 | 103 | 98.1 | 96.9 | 107 | –
100 nM | – | – | 106 | 104 | 88.2 | 104 | 90.2 | –
0.3 µM | 74 | 109 | – | – | – | – | – | 0.34
1000 nM | – | – | 88.3 | 75.5 | 72.8 | 96.6 | 54.1 | –
3 µM | 86 | 93 | – | – | – | – | – | 0.05
10 µM | 76 | 93 | – | – | – | – | – | 0.03
10000 nM | – | – | 76.6 | 79.5 | 42.8 | 93.5 | 40.1 | –
30 µM | 77 | 85 | – | – | – | – | – | -0.03

Conditions | drug sensitivity score | relative viability EC50 [µM]
Caco-2 [11] | 2.2 | –
Caco-2 [17] | – | > 10
Calu-3 [10] | 3.5 | –
Calu-3 [16] | – | > 10
HepG2 [9] | 6.5 | –
HepG2 [15] | – | 0.805
U2OS [7] | 0 | –
U2OS [13] | – | > 10
Vero E6 [8] | 9.6 | –
Vero E6 [14] | – | 0.388

drug-induced phospholipidosis [%], A549-ACE2 [12]
Conditions | 0.3 µM | 0.833333 µM | 3.33333 µM | 6.66667 µM | 10 µM | 30 µM
24 h | 8.49 | 7.52 | 10 | 12 | 13.7 | 24
48 h | 5.08 | 2.66 | 7.02 | 10.2 | 11.5 | 19.6
72 h | 5.88 | 1.74 | 5.37 | 8.06 | 13.5 | 16

Cc1ccc(C(=O)Nc2cccc(C(F)(F)F)c2)cc1Nc1nc(-c2cccnc2)nc2c1cnn2C [NVP-BHG712]
Conditions | SARS-CoV-2 infection rate [%] | cell count [%] | cell viability [%] | morphology score | phospholipidosis EC50 [µM]
A549-ACE2 [20], 24 h | – | – | – | – | 1.65
A549-ACE2 [20], 48 h | – | – | – | – | 2.21
A549-ACE2 [20], 72 h | – | – | – | – | 3.75
Caco-2 [6], 1 nM | – | – | 93.9 | – | –
Caco-2 [6], 10 nM | – | – | 93.5 | – | –
Caco-2 [6], 100 nM | – | – | 101 | – | –
Caco-2 [6], 1000 nM | – | – | 96.6 | – | –
Caco-2 [6], 10000 nM | – | – | 107 | – | –
Calu-3 [5], 1 nM | – | – | 100 | – | –
Calu-3 [5], 10 nM | – | – | 95.2 | – | –
Calu-3 [5], 100 nM | – | – | 96.3 | – | –
Calu-3 [5], 1000 nM | – | – | 108 | – | –
Calu-3 [5], 10000 nM | – | – | 102 | – | –
HepG2 [4], 1 nM | – | – | 117 | – | –
HepG2 [4], 10 nM | – | – | 104 | – | –
HepG2 [4], 100 nM | – | – | 96.5 | – | –
HepG2 [4], 1000 nM | – | – | 48.6 | – | –
HepG2 [4], 10000 nM | – | – | 74.1 | – | –
U2OS [2], 1 nM | – | – | 95.7 | – | –
U2OS [2], 10 nM | – | – | 94.3 | – | –
U2OS [2], 100 nM | – | – | 109 | – | –
U2OS [2], 1000 nM | – | – | 95.5 | – | –
U2OS [2], 10000 nM | – | – | 105 | – | –
Vero E6 [3], 1 nM | – | – | 96.5 | – | –
Vero E6 [3], 10 nM | – | – | 102 | – | –
Vero E6 [3], 100 nM | – | – | 98.1 | – | –
Vero E6 [3], 1000 nM | – | – | 109 | – | –
Vero E6 [3], 10000 nM | – | – | 108 | – | –
[1], 0.3 µM | – | 98 | – | – | –
[1], 3 µM | – | 111 | – | – | –
[1], 10 µM | – | 69 | – | – | –
[1], 30 µM | – | 93 | – | – | –
[18], 0.3 µM | – | – | – | -0.1 | –
[18], 3 µM | – | – | – | 0.35 | –
[18], 10 µM | – | – | – | 0.14 | –
[18], 30 µM | – | – | – | 0.25 | –
[19], 0.3 µM | 99 | – | – | – | –
[19], 3 µM | 68 | – | – | – | –
[19], 10 µM | 41 | – | – | – | –
[19], 30 µM | 84 | – | – | – | –

Conditions | drug sensitivity score | relative viability EC50 [µM]
Caco-2 [11] | 0 | –
Caco-2 [17] | – | > 10
Calu-3 [10] | 0 | –
Calu-3 [16] | – | > 10
HepG2 [9] | 9.9 | –
HepG2 [15] | – | 0.264
U2OS [7] | 0 | –
U2OS [13] | – | > 10
Vero E6 [8] | 0 | –
Vero E6 [14] | – | > 10

drug-induced phospholipidosis [%], A549-ACE2 [12]
Conditions | 0.3 µM | 0.833333 µM | 3.33333 µM | 6.66667 µM | 10 µM | 30 µM
24 h | 3.95 | 19.7 | 113 | 126 | 120 | 138
48 h | 7.5 | 21.5 | 139 | 176 | 183 | –
72 h | 7.15 | 18.8 | 137 | 208 | 244 | –

COc1ccc2cc1Oc1ccc(cc1)C[C@H]1c3cc(c(OC)cc3CCN1C)Oc1c(OC)c(OC)cc3c1[C@H](C2)N(C)CC3 [tetrandrine]
Conditions | SARS-CoV-2 infection rate [%] | cell count [%] | cell viability [%] | morphology score | phospholipidosis EC50 [µM]
A549-ACE2 [20], 24 h | – | – | – | – | 7
A549-ACE2 [20], 48 h | – | – | – | – | 10.2
A549-ACE2 [20], 72 h | – | – | – | – | 5.6
Caco-2 [6], 1 nM | – | – | 100 | – | –
Caco-2 [6], 10 nM | – | – | 97.9 | – | –
Caco-2 [6], 100 nM | – | – | 92.1 | – | –
Caco-2 [6], 1000 nM | – | – | 95.4 | – | –
Caco-2 [6], 10000 nM | – | – | 79.5 | – | –
Calu-3 [5], 1 nM | – | – | 88.3 | – | –
Calu-3 [5], 10 nM | – | – | 109 | – | –
Calu-3 [5], 100 nM | – | – | 91.3 | – | –
Calu-3 [5], 1000 nM | – | – | 99.9 | – | –
Calu-3 [5], 10000 nM | – | – | 29.1 | – | –
HepG2 [4], 1 nM | – | – | 104 | – | –
HepG2 [4], 10 nM | – | – | 102 | – | –
HepG2 [4], 100 nM | – | – | 97.7 | – | –
HepG2 [4], 1000 nM | – | – | 94.1 | – | –
HepG2 [4], 10000 nM | – | – | 71.5 | – | –
Vero E6 [3], 1 nM | – | – | 100 | – | –
Vero E6 [3], 10 nM | – | – | 94.2 | – | –
Vero E6 [3], 100 nM | – | – | 94.6 | – | –
Vero E6 [3], 1000 nM | – | – | 94.4 | – | –
Vero E6 [3], 10000 nM | – | – | 92.6 | – | –
[1], 0.3 µM | – | 106 | – | – | –
[1], 3 µM | – | 115 | – | – | –
[1], 10 µM | – | 119 | – | – | –
[1], 30 µM | – | 79 | – | – | –
[18], 0.3 µM | – | – | – | 0.37 | –
[18], 3 µM | – | – | – | 0.79 | –
[18], 10 µM | – | – | – | 0.07 | –
[18], 30 µM | – | – | – | -0.15 | –
[19], 0.3 µM | 92 | – | – | – | –
[19], 3 µM | 23 | – | – | – | –
[19], 10 µM | 21 | – | – | – | –
[19], 30 µM | 42 | – | – | – | –

Conditions | drug sensitivity score | relative viability EC50 [µM]
Caco-2 [11] | 0.7 | –
Caco-2 [17] | – | > 10
Calu-3 [10] | 3.9 | –
Calu-3 [16] | – | 3.15
HepG2 [9] | 2.1 | –
Vero E6 [8] | 0 | –
Vero E6 [14] | – | > 10

drug-induced phospholipidosis [%], A549-ACE2 [12]
Conditions | 0.3 µM | 0.833333 µM | 3.33333 µM | 6.66667 µM | 10 µM | 30 µM
24 h | 16.2 | 29.5 | 61.4 | 78 | 92.7 | 115
48 h | 16.2 | 22.2 | 51.1 | 78.8 | 101 | 145
72 h | 8.49 | 16.5 | 49.2 | 80.6 | 103 | 176
